Results taken from patent US10596150B2, “Antifungal agents” (F2G LIMITED, priority 2014, dated 2020).
In brackets after ≈: the same amount, converted by molar mass.

Assays:
Experiment in all cases: Minimum Inhibitory Concentration (MIC), RPMI medium
Assay type in all cases: cell-based
A. flavus = conditions: Aspergillus flavus, >80% growth inhibition
Description: (§1) Between 1 and 5 mgs of the compound were accurately weighed out into a sterile Eppendorf tube. The compound was dissolved in DMSO to give a solution containing 5 mg/mL. Tubes were stored at −20° C. until required.
(§2) On the day of testing thawed solutions were vortex mixed to ensure homogeneity. 30 μL of solution was removed and added to 570 μL of sterile water in a separate sterile Eppendorf. The thoroughly mixed solution was used to prepare a series of doubling dilutions in water, in a deep well plate. Thirteen replicate plates were prepared using a Minitrak by aspirating 20 μL from each well into eleven clear polystyrene 96 well plates.
(§3) Spores of Aspergillus and Scedosporium were harvested from cultures grown on Sabarauds agar for 5 days, and resuspended in PBS/Tween 80 to approx 1×10^7 cfu/mL. Each organism suspension was diluted in RPMI medium, containing 2% glucose and 0.135 M MOPS buffer (pH 7.0) to 0.5-2×10^4 cfu/mL. 80 μL of an organism suspension was added to each well of the plate containing drug dilutions.
(§4) This produced MIC plates with a drug range 50-0.05 mg/L and organism inocula of 1-2×10^4 cfu/mL. All plates were incubated for 24-48 h at 35° C. Growth was assessed by monitoring the optical density at 485 nm for each well. The MIC of a compound is the lowest drug concentration that inhibits growth of an organism by >80% compared with a drug free control.

A. fumigatus 210 = conditions: Aspergillus fumigatus, >80% growth inhibition
Description: as §1, §2, §3, §4

A. fumigatus = conditions: Aspergillus fumigatus, >80% growth inhibition
Description: as §1, §2, §3, §4

A. niger = conditions: Aspergillus niger, >80% growth inhibition
Description: as §1, §2, §3, §4

A. terreus 49 = conditions: Aspergillus terreus, >80% growth inhibition
Description: as §1, §2, §3, §4

A. terreus = conditions: Aspergillus terreus, >80% growth inhibition
Description: as §1, §2, §3, §4

Scedos apiospermum 1124 = conditions: Scedosporium apiospermum
Description: as §1, §2, §3, §4

[1] = tested on: Scedosporium apiospermum 13486
Description: as §1, §2, §3, §4

[2] = tested on: Scedosporium apiospermum 15848
Description: as §1, §2, §3, §4

[3] = tested on: Scedosporium apiospermum 451
Description: as §1, §2, §3, §4

[4] = tested on: Scedosporium apiospermum 4883
Description: as §1, §2, §3, §4

[5] = tested on: Scedosporium apiospermum 7935
Description: as §1, §2, §3, §4

[6] = tested on: Scedosporium apiospermum 8353
Description: as §1, §2, §3, §4

[7] = tested on: Scedosporium prolifican 1121
Description: as §1, §2, §3, §4

[8] = tested on: Scedosporium prolifican 13486
Description: as §1, §2, §3, §4

[9] = tested on: Scedosporium prolifican 15848
Description: as §1, §2, §3, §4

[10] = tested on: Scedosporium prolifican 15849
Description: as §1, §2, §3, §4

[11] = tested on: Scedosporium prolifican 201
Description: as §1, §2, §3, §4

[12] = tested on: Scedosporium prolifican 451
Description: as §1, §2, §3, §4

[13] = tested on: Scedosporium prolifican 4883
Description: as §1, §2, §3, §4

[14] = tested on: Scedosporium prolifican 7935
Description: as §1, §2, §3, §4

[15] = tested on: Scedosporium prolifican 8353
Description: as §1, §2, §3, §4

[16] = tested on: Scedosporium prolificans 18389; conditions: Lomentospora prolificans
Description: as §1, §2, §3, §4

[17] = tested on: Scedosporium prolificans 206; conditions: Lomentospora prolificans
Description: as §1, §2, §3, §4

[18] = tested on: Scedosporium prolificans 6322; conditions: Lomentospora prolificans
Description: as §1, §2, §3, §4

[19] = tested on: Scedosporium species 15849
Description: as §1, §2, §3, §4

For `Cc1cc(-c2ccccc2)c(C(=O)C(=O)Nc2ccc(N3CCN(c4ncc(F)cn4)CC3)cc2)n1C` [Example 1, 2-(1,5-dimethyl-3-phenyl-1H-pyrrol-2-yl)-N-(4-(4-(5-fluoropyrimidin-2-yl)piperazin-1-yl)phenyl)-2-oxoacetamide], the MIC (A. flavus) was 0.005 to 0.01 µg/mL (≈ 0.01 to 0.0201 µM), the MIC (A. fumigatus 210) was 0.01 to 0.02 µg/mL (≈ 0.0201 to 0.0401 µM) and the MIC (A. fumigatus) was 0.01 to 0.02 µg/mL (≈ 0.0201 to 0.0401 µM). The MIC (A. niger) was 0.01 to 0.02 µg/mL (≈ 0.0201 to 0.0401 µM), the MIC (A. terreus 49) was ≤ 0.005 µg/mL and the MIC (A. terreus) was ≤ 0.005 µg/mL. For the same compound, the MIC (Scedos apiospermum 1124) was ≤ 0.005 µg/mL, the “MIC Scedosporium apiospermum 13486” value [1] was “D (A grade of D represents an MIC of greater than 0.02 mg/L but less than or equal to 0.04 mg/L)” and the MIC ([1]; Scedosporium apiospermum, 13486) was 0.02 to 0.04 µg/mL (≈ 0.0401 to 0.0802 µM). For the same compound, the MIC [2] was 0.02 to 0.04 µg/mL (≈ 0.0401 to 0.0802 µM), the MIC [3] was 0.005 to 0.01 µg/mL (≈ 0.01 to 0.0201 µM) and the MIC [4] was 0.01 to 0.02 µg/mL (≈ 0.0201 to 0.0401 µM). The MIC [5] was 0.01 to 0.02 µg/mL (≈ 0.0201 to 0.0401 µM), the MIC [6] was 0.005 to 0.01 µg/mL (≈ 0.01 to 0.0201 µM) and the MIC [7] was ≤ 0.005 µg/mL. The MIC [8] was 0.02 to 0.04 µg/mL (≈ 0.0401 to 0.0802 µM), the MIC [9] was 0.02 to 0.04 µg/mL (≈ 0.0401 to 0.0802 µM) and the MIC [10] was 0.04 to 0.06 µg/mL (≈ 0.0802 to 0.12 µM). The MIC [11] was 0.02 to 0.04 µg/mL (≈ 0.0401 to 0.0802 µM), the MIC [12] was 0.005 to 0.01 µg/mL (≈ 0.01 to 0.0201 µM) and the MIC [13] was 0.01 to 0.02 µg/mL (≈ 0.0201 to 0.0401 µM). The MIC [14] was 0.01 to 0.02 µg/mL (≈ 0.0201 to 0.0401 µM), the MIC [15] was 0.005 to 0.01 µg/mL (≈ 0.01 to 0.0201 µM) and the MIC [16] was 0.01 to 0.02 µg/mL (≈ 0.0201 to 0.0401 µM). The MIC [17] was 0.02 to 0.04 µg/mL (≈ 0.0401 to 0.0802 µM), the MIC [18] was 0.02 to 0.04 µg/mL (≈ 0.0401 to 0.0802 µM) and the MIC [19] was 0.04 to 0.06 µg/mL (≈ 0.0802 to 0.12 µM).
